Source: US12264134B2 (Merck Sharp & Dohme LLC, priority 2018, dated 2025)

Assays:
IDO1 [1] = target: T1, IDO1 (Homo sapiens, UniProt P14902); assay: IDO1 Cellular Assay in HeLa Cells Stimulated with IFNγ; assay type: cell-based; details: read-out: HeLa Cell Potency, IC50
IDO1 [2] = target: T1, IDO1; assay: IDO1 Human Whole blood Assay; assay type: cell-based; parameters: Human whole blood was drawn in sodium heparin coated tubes from healthy internal donors; from tissue; host or cells: human whole blood from healthy donors, stimulated with LPS and IFNγ; details: LPS and IFNγ stimulated, 18 h, read-out: Human Whole Blood Potency, IC50
Experimental: IDO1Human Whole blood Assay
Compounds to be tested were serially diluted in ten 3-fold steps in DMSO starting from 10 mM. 3 μL of compound dilutions or DMSO alone were then dispensed from the dilution plate into a polypropylene 96-well assay plate containing 97 μL of RPMI medium using an Echo 555 acoustic liquid handler (Labcyte). LPS and IFNγ was prepared in RPMI medium to a 10× of final conc. (1000 ng/mL), final concentration is 100 ng/mL.
Human whole blood was drawn in sodium heparin coated tubes from healthy internal donors. 240 μL of blood was transferred to each of the wells of a v-bottom 96 well plate. 30 μL of compound was transferred from intermediate dilution plate, and incubated for 15 min. 30 μL from stimulants was then transferred to blood and mixed thoroughly. Plate was covered with breathable membrane and incubated at 37° C. for overnight (18 h).
On day 2, isotope labeled standard solutions of kynurenine and tryptophan was made in water at 10× concentration and 30 μL was added to the blood at 3 μM final concentration. The assay plates were centrifuged at 300×G for 10 min with no brake to separate plasma from red blood cells. 60 μL of plasma samples was removed without disturbing red blood cells. Plasma was diluted with RPMI in 1:1 ratio and proteins were precipitated out with two volumes of Acetonitrile. The plates were centrifuged at 4000×G for 60 min. 20 μL of supernatant was carefully transferred to a 384 well plate containing 40 μL of 0.1% formic acid in water and analyzed by LC/MS/MS.
LC/MS/MS analyses were performed using Thermo Fisher's LX4-TSQ Quantum Ultra system. This system consists of four Agilent binary high-performance liquid chromatography (HPLC) pumps and a TSQ Quantum Ultra triple quadrupole MS/MS instrument. For each sample, 5 μL were injected onto an Atlantis T3 column (2.1 mm×150 mm, 3 μm particle size) from Waters. The mobile phase gradient pumped at 0.8 mL/min was used to elute the analytes from the column at 25° C. The elution started at 0% B increasing linearly to 25% B at 6.5 min, holding at 25% for 1 min, re-equilibrating to 10 min. Mobile phase A consisted of 0.1% formic acid in water. Mobile phase B consisted of 0.1% of formic acid in acetonitrile. Data were acquired in positive mode using a HESI interface. The operational parameters for the TSQ Quantum Ultra instrument were a spray voltage of 4000 V, capillary temperature of 380° C., vaporizer temperature 400° C., shealth gas 60 arbitrary units, Aux gas 20 arbitrary units, tube lens 85 and collision gas 1.2 mTorr. SRM chromatograms of kynurenine (Q1: 209.2>Q3:94.0) and internal standard (Q1: 215.3>Q3:98.2) were collected for 90 sec. The peak area was integrated by Xcalibur Quan software. The ratios between the kynurenine generated in the reaction and 2D6-Kynurenine spiked-in internal standard were used to generate percentage inhibition and IC50 values. Compounds were titrated and IC50's were calculated by 4 parameter sigmoidal curve fitting formula.

T1 sequence (P14902 whole entry): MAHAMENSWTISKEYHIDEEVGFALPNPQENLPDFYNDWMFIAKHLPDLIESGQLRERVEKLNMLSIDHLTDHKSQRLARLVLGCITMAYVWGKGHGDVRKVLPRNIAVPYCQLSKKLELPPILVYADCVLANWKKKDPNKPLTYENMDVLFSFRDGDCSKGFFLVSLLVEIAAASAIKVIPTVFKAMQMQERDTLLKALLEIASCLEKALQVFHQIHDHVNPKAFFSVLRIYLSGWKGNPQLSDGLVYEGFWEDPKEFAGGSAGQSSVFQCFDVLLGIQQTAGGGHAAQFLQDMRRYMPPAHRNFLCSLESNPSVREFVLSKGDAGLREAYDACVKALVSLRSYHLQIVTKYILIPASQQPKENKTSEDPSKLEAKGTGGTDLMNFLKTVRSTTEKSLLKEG

Row | SMILES | IC50 (IDO1 [1]) | IC50 (IDO1 [2])
1 | Cc1cccc(N2CCN(C(=O)Cn3nc(C(=O)N4CC[C@H](O)[C@H](F)C4)c4c3CC(C(F)F)C4)CC2)c1C (mixture of isomers) [Example 17, 2-[rac-5-(difluoromethyl)-3-[(3R,4S)-3-fluoro-4-hydroxy-piperidine-1-carbonyl]-5,6-dihydro-4H-cyclopenta[c]pyrazol-1-yl]-1-[4-(2,3-dimethylphenyl)piperazin-1-yl]ethanone] | 0.0109 µM | 0.625 µM
2 | Cc1cccc(N2CCN(C(=O)Cn3nc(C(=O)N4CCC(O)CC4)c4c3CC(C(F)F)C4)CC2)c1C (racemic) [Example 16, 2-[rac-5-(difluoromethyl)-3-(4-hydroxypiperidine-1-carbonyl)-5,6-dihydro-4H-cyclopenta[c]pyrazol-1-yl]-1-[4-(2,3-dimethylphenyl)piperazin-1-yl]ethanone] | 0.00221 µM | 0.143 µM
3 | Cc1cccc(N2CCN(C(=O)Cn3nc(C(=O)N4CCCC4)c4c3CCC(F)C4)CC2)c1C (single isomer, unassigned) [Example 8, 1-(4-(2,3-dimethylphenyl)piperazin-1-yl)-2-(5-fluoro-3-(pyrrolidine-1-carbonyl)-4,5,6,7-tetrahydro-1H-indazol-1-yl)ethanone] | 0.0113 µM | 2.44 µM
4 | Cc1cccc(N2CCN(C(=O)Cn3nc(C(=O)N4CC[C@H](O)[C@H](F)C4)c4c3CC(C(F)F)C4)CC2)c1C (single isomer, unassigned) [Example 11] | 0.0076 µM | 0.98 µM
5 | Cc1cccc(N2CCN(C(=O)Cn3nc(C(=O)N4CC[C@H](O)C(F)(F)C4)c4c3CCC4)CC2)c1C (single isomer, unassigned) [Example 201, 2-[3-[(4S or 4R)-3,3-difluoro-4-hydroxy-piperidine-1-carbonyl]-5,6-dihydro-4H-cyclopenta[c]pyrazol-1-yl]-1-[4-(2,3-dimethylphenyl)piperazin-1-yl]ethanone] | 0.00367 µM | 1.8 µM
6 | Cc1cccc(N2CCN(C(=O)Cn3nc(C(=O)N4CC[C@@H](O)C(F)(F)C4)c4c3CCC4)CC2)c1C (single isomer, unassigned) [Example 202, 2-[3-[(4R or 4S)-3,3-difluoro-4-hydroxy-piperidine-1-carbonyl]-5,6-dihydro-4H-cyclopenta[c]pyrazol-1-yl]-1-[4-(2,3-dimethylphenyl)piperazin-1-yl]ethanone] | 0.00591 µM | 0.516 µM
7 | Cc1cccc(N2CCN(C(=O)Cn3nc(C(=O)N4CCC(O)C(F)C4)c4c3CCC4)C3(CC3)C2)c1C (single isomer, unassigned) [Example 328, 1-[7-(2,3-dimethylphenyl)-4,7-diazaspiro[2.5]octan-4-yl]-2-[3-(3-fluoro-4-hydroxy-piperidine-1-carbonyl)-5,6-dihydro-4H-cyclopenta[c]pyrazol-1-yl]ethanone] | 0.00686 µM | 4.16 µM
8 | Cc1cccc(N2CCN(C(=O)Cn3nc(C(=O)N4CCC(O)C(F)C4)c4c3CCC4)C3(CC3)C2)c1C (single isomer, unassigned) [Example 329, 1-[7-(2,3-dimethylphenyl)-4,7-diazaspiro[2.5]octan-4-yl]-2-[3-(3-fluoro-4-hydroxy-piperidine-1-carbonyl)-5,6-dihydro-4H-cyclopenta[c]pyrazol-1-yl]ethanone] | 0.0072 µM | 0.904 µM
9 | Cc1c(Cl)cccc1N1CCN(C(=O)Cn2nc(C(=O)N3CCC(OCCO)CC3)c3c2CCC(F)C3)CC1 (single isomer, unassigned) [Example 368, 1-(4-(3-chloro-2-methylphenyl)piperazin-1-yl)-2-(5-fluoro-3-(4-(2-hydroxyethoxy)piperidine-1-carbonyl)-4,5,6,7-tetrahydro-1H-indazol-1-yl)ethan-1-one] | 0.0028 µM | 0.055 µM
10 | Cc1c(Cl)cccc1N1CCN(C(=O)Cn2nc(C(=O)N3CCC(OCCO)CC3)c3c2CCC(F)C3)CC1 (single isomer, unassigned) [Example 373, 1-(4-(3-chloro-2-methylphenyl)piperazin-1-yl)-2-(5-fluoro-3-(4-(2-hydroxyethoxy)piperidine-1-carbonyl)-4,5,6,7-tetrahydro-1H-indazol-1-yl)ethan-1-one] | 0.00378 µM | 0.202 µM
11 | Cc1cccc(N2CCN(C(=O)Cn3nc(C(=O)N4CCC(O)C(F)C4)c4c3CCC4)C3(CC3)C2)c1C (single isomer, unassigned) [Example 393, 1-(7-(2,3-dimethylphenyl)-4,7-diazaspiro[2.5]octan-4-yl)-2-(3-(3-fluoro-4-hydroxypiperidine-1-carbonyl)-5,6-dihydrocyclopenta[c]pyrazol-1(4H)-yl)ethanone] | 0.00761 µM | 0.971 µM
12 | Cc1cccc(N2CCN(C(=O)Cn3nc(C(=O)N4CCC(O)C(F)C4)c4c3CCC4)C3(CC3)C2)c1C (single isomer, unassigned) [Example 395, 1-(7-(2,3-dimethylphenyl)-4,7-diazaspiro[2.5]octan-4-yl)-2-(3-(3-fluoro-4-hydroxypiperidine-1-carbonyl)-5,6-dihydrocyclopenta[c]pyrazol-1(4H)-yl)ethanone] | 0.00686 µM | 4.16 µM

Continued by falling IC50 (IDO1 [1]), values first:

Row | IC50 (IDO1 [1]) | IC50 (IDO1 [2]) | SMILES
13 | 0.0838 µM |  | Cc1cccc(N2CCN(C(=O)Cn3nc(C(=O)N4C[C@@H](C)O[C@@H](C)C4)c4c3CCC4)CC2)c1 [Example 488, 2-(3-((2S,6R)-2,6-dimethylmorpholine-4-carbonyl)-5,6-dihydrocyclopenta [c]pyrazol-1(4H)-yl)-1-(4-(m-tolyl)piperazin-1-yl)ethanone]
14 | 0.0111 µM | 0.934 µM | Cc1cccc(N2CCN(C(=O)Cn3nc(C(=O)N4CCCC4)c4c3CCC(F)C4)CC2)c1C (single isomer, unassigned) [Example 7, 1-(4-(2,3-dimethylphenyl)piperazin-1-yl)-2-(5-fluoro-3-(pyrrolidine-1-carbonyl)-4,5,6,7-tetrahydro-1H-indazol-1-yl)ethanone]
15 | 0.00761 µM | 0.971 µM | Cc1cccc(N2CCN(C(=O)Cn3nc(C(=O)N4CCC(O)C(F)C4)c4c3CCC4)C3(CC3)C2)c1C (single isomer, unassigned) [Example 330, 1-[7-(2,3-dimethylphenyl)-4,7-diazaspiro[2.5]octan-4-yl]-2-[3-(3-fluoro-4-hydroxy-piperidine-1-carbonyl)-5,6-dihydro-4H-cyclopenta[c]pyrazol-1-yl]ethanone]
16 | 0.0072 µM | 0.904 µM | Cc1cccc(N2CCN(C(=O)Cn3nc(C(=O)N4CCC(O)C(F)C4)c4c3CCC4)C3(CC3)C2)c1C (single isomer, unassigned) [Example 394, 1-(7-(2,3-dimethylphenyl)-4,7-diazaspiro[2.5]octan-4-yl)-2-(3-(3-fluoro-4-hydroxypiperidine-1-carbonyl)-5,6-dihydrocyclopenta[c]pyrazol-1(4H)-yl)ethanone]
17 | 0.00503 µM | 0.813 µM | Cc1cccc(N2CCN(C(=O)Cn3nc(C(=O)N4CCC(OCCO)CC4)c4c3C[C@H]3C[C@@H]43)[C@H]3CCC[C@@H]32)c1C (racemic) [Example 326, 1-[rac-(4aS,7aS or 4aR,7aR)-1-(2,3-dimethylphenyl)-3,4a,5,6,7,7a-hexahydro-2H-cyclopenta[b]pyrazin-4-yl]-2-[(2R,4R)-9-[4-(2-hydroxyethoxy)piperidine-1-carbonyl]-7,8-diazatricyclo[4.3.0.02,4]nona-1(6),8-dien-7-yl]ethanone]
18 | 0.00426 µM | 0.126 µM | Cc1cccc(N2CCN(C(=O)Cn3nc(C(=O)N4CCC(O)CC4)c4c3C[C@H](C(F)F)C4)CC2)c1C (single isomer, unassigned) [Example 9]
19 | 0.00174 µM | 0.233 µM | Cc1cccc(N2CCN(C(=O)Cn3nc(C(=O)N4CCC(O)CC4)c4c3CC(C(F)F)C4)CC2)c1C (single isomer, unassigned) [Example 10, 2-[5-(difluoromethyl)-3-(4-hydroxypiperidine-1-carbonyl)-5,6-dihydro-5H-cyclopenta[c]pyrazol-1-yl]-1-[4-(2,3-dimethylphenyl)piperazin-1-yl]ethanone]
